Test results: patent publication US9615576B2, “Pesticidal compositions and processes related thereto” (Dow AgroSciences LLC, priority 2011, dated 2017)

How the values were obtained:
[1] = test system: Corn Earworm (CEW) (Helicoverpa zea); experiment: Bioassays on Corn Earworm (CEW), 128-well diet tray assay; assay type: in vivo; conditions: 168 h, 50 μg/cm^2 test compound on artificial diet, second instar larvae, 25° C., five to seven days, average of eight wells, read-out: CEW Rating (% mortality)
Description: (§1) Certain molecules disclosed in this document were tested against BAW and CEW using procedures described in the following examples. In the reporting of the results, the “BAW & CEW Rating Table” was used (See Table Section).
Bioassays on CEW (Helicoverpa zea)
Bioassays on CEW were conducted using a 128-well diet tray assay. one to five second instar CEW larvae were placed in each well (3 mL) of the diet tray that had been previously filled with 1 mL of artificial diet to which 50 μg/cm^2 of the test compound (dissolved in 50 μL of 90:10 acetone-water mixture) had been applied (to each of eight wells) and then allowed to dry. Trays were covered with a clear self-adhesive cover, and held at 25° C., 14:10 light-dark for five to seven days. Percent mortality was recorded for the larvae in each well; activity in the eight wells was then averaged. The results are indicated in the table entitled “Table 3: Assay Results” (See Table Section).

[2] = test system: Beet Armyworm (BAW) (Spodoptera exigua); experiment: Bioassays on Beet Armyworm (BAW), 128-well diet tray assay; assay type: in vivo; conditions: 168 h, 50 μg/cm^2 test compound on artificial diet, second instar larvae, 25° C., five to seven days, average of eight wells, read-out: BAW Rating (% mortality)
Description: as §1
Bioassays on BAW (Spodoptera exigua)
Bioassays on BAW were conducted using a 128-well diet tray assay. one to five second instar BAW larvae were placed in each well (3 mL) of the diet tray that had been previously filled with 1 mL of artificial diet to which 50 μg/cm^2 of the test compound (dissolved in 50 μL of 90:10 acetone-water mixture) had been applied (to each of eight wells) and then allowed to dry. Trays were covered with a clear self-adhesive cover, and held at 25° C., 14:10 light-dark for five to seven days. Percent mortality was recorded for the larvae in each well; activity in the eight wells was then averaged. The results are indicated in the table entitled “Table 3: Assay Results” (See Table Section).

SMILES | mortality at 50 µg/cm2 [1] [%] | mortality at 50 µg/cm2 [2] [%]
CCNC(=O)NCc1ccc(/C=C/C(c2cc(Cl)c(Cl)c(Cl)c2)C(F)(F)F)cc1C(F)(F)F (stereo not drawn) [CC32] | 50 to 100 | 50 to 100
O=C(CC(F)(F)F)NOc1ccc(/C=C/C(c2cc(Cl)c(Cl)c(Cl)c2)C(F)(F)F)cc1 (stereo not drawn) [CC53] | 0 | 0
Cc1cc(/C=C/C(c2cc(Cl)cc(Cl)c2)C(F)(F)F)ccc1C(=S)NCc1ccc(Cl)nc1 (stereo not drawn) [AC115, (E)-N-((6-chloropyridin-3-yl)methyl)-4-(3-(3,5-dichlorophenyl)-4,4,4-trifluorobut-1-en-1-yl)-2-methylbenzothioamide] | 50 to 100 | 50 to 100
O=C(NC1CSC1)c1ccc(/C=C/C(c2cc(Cl)cc(Cl)c2)C(F)(F)F)cc1F (stereo not drawn) [AC61] | 50 to 100 | 50 to 100
O=C(NCc1ncc(/C=C/C(c2cc(Cl)c(Cl)c(Cl)c2)C(F)(F)F)cc1Cl)C1CC1 (stereo not drawn) [CC45] | 50 to 100 | 50 to 100
Cc1cc(/C=C/C(c2cc(Cl)cc(Cl)c2)C(F)(F)F)ccc1C(=O)NCc1nccn1C (stereo not drawn) [AC50] | 0 | 50 to 100
O=C(NCc1ccc(/C=C/C(c2cc(Cl)c(Cl)c(Cl)c2)C(F)(F)F)cc1Cl)N1CCOCC1 (stereo not drawn) [CC34] | 50 to 100 | 50 to 100
O=C(CC(F)(F)F)NCc1ccc(/C=C\C(c2cc(Cl)c(Cl)c(Cl)c2)C(F)(F)F)cc1 (stereo not drawn) [CC54, (Z)-3,3,3-trifluoro-N-(4-(4,4,4-trifluoro-3-(3,4,5-trichlorophenyl)but-1-en-1-yl)benzyl)propanamide] | 50 to 100 | 50 to 100
O=C(NCc1ccc(/C=C/C(c2cc(Cl)c(Cl)c(Cl)c2)C(F)(F)F)cc1F)C1CC1 (stereo not drawn) [CC28] | 50 to 100 | 50 to 100
CCOC(=O)c1cc(/C=C/C(c2cc(Cl)cc(Cl)c2)C(F)(F)F)ccc1-n1cncn1 (stereo not drawn) [DC60] | 50 to 100 | 50 to 100
N#Cc1cc(/C=C/C(c2cc(Cl)cc(C(F)(F)F)c2)C(F)(F)F)ccc1-n1cncn1 (stereo not drawn) [DC33] | 50 to 100 | 50 to 100
FC(F)(F)C(/C=C/c1ccc(-n2cncn2)cc1)c1cccc(Cl)c1Cl (stereo not drawn) [DC14] | 0 | 0
O=C(O)c1cc(/C=C/C(c2cc(Cl)cc(Cl)c2)C(F)(F)F)ccc1-n1cncn1 (stereo not drawn) [DC61, (E)-5-(3-(3,5-dichlorophenyl)-4,4,4-trifluorobut-1-en-1-yl)-2-(1H-1,2,4-triazol-1-yl)benzoic acid] | 0 | 0
Cc1cc(/C=C/C(c2cc(Cl)cc(Cl)c2)C(F)(F)F)ccc1C(=O)NCc1ccccn1 (stereo not drawn) [AC12] | 50 to 100 | 50 to 100
Cc1cc(/C=C/C(c2cc(Cl)c(F)c(Cl)c2)C(F)(F)F)ccc1C(=O)NCc1ccc(Cl)nc1 (stereo not drawn) [AC38] | 50 to 100 | 50 to 100
Cc1cc(/C=C/C(c2cc(Cl)cc(Cl)c2)C(F)(F)F)ccc1C(=O)NCc1cnccn1 (stereo not drawn) [AC43] | 50 to 100 | 50 to 100
FC(F)(F)C(/C=C/c1ccc(-n2cncn2)cc1)c1cc(Cl)c(Cl)c(Cl)c1 (stereo not drawn) [DC18] | 50 to 100 | 50 to 100
Cc1cc(/C=C/C(c2cc(Cl)c(F)c(Cl)c2)C(F)(F)F)ccc1C(=O)NCC(=O)NCC(F)(F)F (stereo not drawn) [AC69] | 50 to 100 | 50 to 100
Cc1cc(/C=C/C(c2cc(Cl)cc(Cl)c2)C(F)(F)F)ccc1C(=O)NCc1ccccc1F (stereo not drawn) [AC9] | 50 to 100 | 50 to 100
Fc1ccc(C(/C=C/c2ccc(-n3cncn3)cc2)C(F)(F)F)cc1 (stereo not drawn) [DC7] | 0 | 50 to 100
COc1cc(/C=C/C(c2cc(Cl)c(F)c(Cl)c2)C(F)(F)F)ccc1C(=O)NC1CS(=O)(=O)C1 (stereo not drawn) [AC85] | 50 to 100 | 50 to 100
CCc1cc(/C=C/C(c2cc(Cl)c(F)c(Cl)c2)C(F)(F)F)ccc1C(=O)NCc1ccc(Cl)nc1 (stereo not drawn) [AC72] | 50 to 100 | 50 to 100
O=C(CC(F)(F)F)NNc1ccc(/C=C/C(c2cc(Cl)c(Cl)c(Cl)c2)C(F)(F)F)cc1 (stereo not drawn) [CC51] | 50 to 100 | 50 to 100
COc1cc(/C=C/C(c2cc(Cl)c(F)c(Cl)c2)C(F)(F)F)ccc1C(=O)NCc1ccc(Cl)nc1 (stereo not drawn) [AC70] | 0 | 0

SMILES | mortality at 50 µg/cm2 [1] [%] | mortality at 50 µg/cm2 [2] [%]
O=C(NCc1ccc(/C=C/C(c2cc(Cl)c(Cl)c(Cl)c2)C(F)(F)F)cc1)C1CC1 (stereo not drawn) [CC5] | 50 to 100 | 50 to 100
NC(=O)c1cc(/C=C/C(c2cc(Cl)cc(Cl)c2)C(F)(F)F)ccc1-n1cncn1 (stereo not drawn) [DC58] | 0 | 0
FC(F)(F)C(/C=C/c1ccc(-n2cncn2)cc1Cl)c1cc(Cl)cc(Cl)c1 (stereo not drawn) [DC67] | 50 to 100 | 50 to 100
Cc1ncn(-c2ccc(/C=C/C(c3cc(Cl)cc(Cl)c3)C(F)(F)F)cc2C#N)n1 (stereo not drawn) [DC36] | 0 | 0
COc1c(Cl)cc(C(/C=C/c2ccc(-n3cncn3)cc2)C(F)(F)F)cc1Cl (stereo not drawn) [DC20] | 0 | 50 to 100
O=C(CC(F)(F)F)NC1CCCc2cc(/C=C/C(c3cc(Cl)c(Cl)c(Cl)c3)C(F)(F)F)ccc21 (stereo not drawn) [BC5] | 50 to 100 | 50 to 100
O=C(NCc1ccc(/C=C/C(c2cc(Cl)cc(Cl)c2)C(F)(F)F)cc1C(F)(F)F)C1CC1 (stereo not drawn) [CC21] | 50 to 100 | 50 to 100
Cc1cc(/C=C/C(c2cc(Cl)cc(Cl)c2)C(F)(F)F)ccc1C(=O)NCc1cccnc1 (stereo not drawn) [AC14] | 0 to 50 | 50 to 100
C/C(=C\C(c1cc(Cl)cc(Cl)c1)C(F)(F)F)c1ccc(-n2cncn2)cc1 (stereo not drawn) [DC68, (E)-1-(4-(4-(3,5-dichlorophenyl)-5,5,5-trifluoropent-2-en-2-yl)phenyl)-1H-1,2,4-triazole] | 50 to 100 | 50 to 100
Cc1cc(/C=C/C(c2cc(Cl)c(F)c(Cl)c2)C(F)(F)F)ccc1C(=O)NCc1ccnc(Cl)c1 (stereo not drawn) [AC54] | 50 to 100 | 50 to 100
OCc1cc(/C=C/C(c2cc(Cl)cc(Cl)c2)C(F)(F)F)ccc1-n1cncn1 (stereo not drawn) [DC53] | 50 to 100 | 0
Cc1cc(/C=C/C(c2cc(Cl)c(F)c(Cl)c2)C(F)(F)F)ccc1C(=O)NCc1cc(Cl)ccn1 (stereo not drawn) [AC77] | 50 to 100 | 50 to 100
C=CCNC(=S)NC1CCc2cc(/C=C/C(c3cc(Cl)c(Cl)c(Cl)c3)C(F)(F)F)ccc21 (stereo not drawn) [BC3] | 50 to 100 | 50 to 100
C=CCNC(=O)CNC(=O)c1ccc(/C=C/C(c2cc(Cl)c(Cl)c(Cl)c2)C(F)(F)F)cc1Br (stereo not drawn) [AC111] | 50 to 100 | 50 to 100
Cc1cc(/C=C/C(c2cc(Cl)c(Cl)c(Cl)c2)C(F)(F)F)ccc1C(=O)NC(C)(C)c1ccccn1 (stereo not drawn) [AC27] | 50 to 100 | 50 to 100
C=CCNC(=S)NCc1ccc(/C=C/C(c2cc(Cl)c(Cl)c(Cl)c2)C(F)(F)F)cc1Cl (stereo not drawn) [CC38] | 50 to 100 | 50 to 100
Cc1cc(/C=C/C(c2cc(Cl)c(Cl)c(Cl)c2)C(F)(F)F)ccc1C(=O)NCC(=O)NCC(F)(F)F (stereo not drawn) [AC78] | 50 to 100 | 50 to 100
Cc1cc(/C=C/C(c2cc(Cl)cc(Cl)c2)C(F)(F)F)ccc1C(=O)NCc1cnc(Cl)s1 (stereo not drawn) [AC15] | 50 to 100 | 50 to 100
CCNC(=S)NC1CCc2cc(/C=C/C(c3cc(Cl)c(Cl)c(Cl)c3)C(F)(F)F)ccc21 (stereo not drawn) [BC2] | 50 to 100 | 50 to 100
CN(C)C(=O)c1ccc(/C=C/C(c2cc(Cl)cc(Cl)c2)C(F)(F)F)cc1 (stereo not drawn) [AC3] | 0 | 0
N#Cc1cc(/C=C/C(c2cc(Cl)cc(Cl)c2)C(F)(F)F)ccc1-n1cnc(N)n1 (stereo not drawn) [DC38] | 50 to 100 | 50 to 100
Cc1cc(/C=C/C(c2cc(Cl)c(Cl)c(Cl)c2)C(F)(F)F)ccc1C(=O)NC1CS(=O)(=O)C1 (stereo not drawn) [AC25] | 50 to 100 | 50 to 100
Cc1ncnn1-c1ccc(/C=C/C(c2cc(Cl)cc(Cl)c2)C(F)(F)F)cc1 (stereo not drawn) [DC23] | 50 to 100 | 0
O=C(C1CC1)N(Cc1ccccn1)Cc1ccc(/C=C/C(c2cc(Cl)c(Cl)c(Cl)c2)C(F)(F)F)cc1C(F)(F)F (stereo not drawn) [CC29, (E)-N-(pyridin-2-ylmethyl)-N-(4-(4,4,4-trifluoro-3-(3,4,5-trichlorophenyl)but-1-enyl)-2-(trifluoromethyl)benzyl)cyclopropanecarboxamide] | 50 to 100 | 50 to 100
